Measurements as given in patent US8722712B2, “Substituted aryl 1 ,2,4-oxadiazoles derivatives as sphingosine-1 phosphate receptors modulators” (Allergan, Inc., priority 2012, dated 2014).

Target: T1, human S1P1 receptor (Homo sapiens, UniProt P21453)
T1 construct: expressed in transfected cells; membranes used
Assay: GTP γ35S binding assay for S1P1 activity
Type: biochemical
Conditions: membranes of cells stably expressing the S1P1 receptor, test compounds 0.08 to 5,000 nM
Procedure: Compounds were synthesized and tested for S1P1 activity using the GTP γ^355 binding assay. These compounds may be assessed for their ability to activate or block activation of the human S1P1 receptor in cells stably expressing the S1P1 receptor.
[…] binding was measured in the medium containing (mM) HEPES 25, pH 7.4, MgCl2 10, NaCl 100, dithitothreitol 0.5, digitonin 0.003%, 0.2 nM GTP γ^35S, and 5 μg membrane protein in a volume of 150 μl. Test compounds were included in the concentration range from 0.08 to 5,000 nM unless indicated otherwise. Membranes were incubated with 100 μM 5′-adenylylimmidodiphosphate for 30 min, and subsequently with 10 μM GDP for 10 min on ice. Drug solutions and membrane were mixed, and then reactions were initiated by adding GTP γ^35S and continued for 30 min at 25° C. Reaction mixtures were filtered over Whatman GF/B filters under vacuum, and washed three times with 3 mL of ice-cold buffer (HEPES 25, pH7.4, MgCl2 10 and NaCl-100). Filters were dried and mixed with scintillant, and counted for ^35S activity using a […]. Agonist-induced GTP γ^35S binding was obtained by subtracting that in the absence of agonist. Binding data were analyzed using a non-linear regression method. In case of antagonist assay, the reaction mixture contained 10 nM […] in the presence of test antagonist at concentrations ranging from 0.08 to 5000 nM.

T1 sequence (P21453 whole entry): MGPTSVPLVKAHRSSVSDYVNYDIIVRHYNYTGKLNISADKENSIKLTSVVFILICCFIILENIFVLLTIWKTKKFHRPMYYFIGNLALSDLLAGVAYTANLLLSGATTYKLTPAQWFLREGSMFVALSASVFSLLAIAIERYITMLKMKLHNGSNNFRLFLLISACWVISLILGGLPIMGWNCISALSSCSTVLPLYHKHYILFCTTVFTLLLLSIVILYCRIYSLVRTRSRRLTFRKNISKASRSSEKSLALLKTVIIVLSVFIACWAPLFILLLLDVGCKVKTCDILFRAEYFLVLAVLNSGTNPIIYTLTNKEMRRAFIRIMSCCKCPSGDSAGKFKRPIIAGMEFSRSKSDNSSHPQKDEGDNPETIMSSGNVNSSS

SMILES | EC50
O=C(O)CCNCc1ccc(-c2noc(CCCCc3ccccc3)n2)cc1 [3-({4-[5-(4-Phenylbutyl)-1,2,4-oxadiazol-3-yl]benzyl}amino)propanoic acid] | 606 nM
CCc1cc(-c2noc(CCCCc3ccccc3)n2)ccc1CNCCCP(=O)(O)O [Compound 1, [3-({2-Ethyl-4-[5-(4-phenylbutyl)-1,2,4-oxadiazol-3-yl]benzyl}amino)propyl]phosphonic acid] | 79.2 nM
O=P(O)(O)CCCNCc1ccc(-c2noc(CCCCc3ccccc3)n2)c(F)c1 [Compound 2, [3-({3-Fluoro-4-[5-(4-phenylbutyl)-1,2,4-oxadiazol-3-yl]benzyl}amino)propyl]phosphonic acid] | 23.8 nM

The remaining lines, values ahead:

EC50 | SMILES
16.9 nM | O=P(O)(O)CCCNCc1ccc(-c2noc(CCCCc3ccccc3)n2)c(Br)c1 [Compound 3, [3-({3-Bromo-4-[5-(4-phenylbutyl)-1,2,4-oxadiazol-3-yl]benzyl}amino)propyl]phosphonic acid]
63.1 nM | O=P(O)(O)CCCNCc1ccc(-c2noc(CCCCc3ccccc3)n2)cc1 [Compound 4, [3-({4-[5-(4-Phenylbutyl)-1,2,4-oxadiazol-3-yl]benzyl}amino)propyl]phosphonic acid]
217 nM | O=P(O)(O)CCCNCc1ccc(-c2noc(CCCCc3ccccc3)n2)c(-c2ccco2)c1 [Compound 7, [3-({3-(2-Furyl)-4-[5-(4-phenylbutyl)1,2,4-oxadiazol-3-yl]benzyl}amino)propyl]phosphonic acid]
